Source: patent publication US12642803B2, “Pharmaceutical aqueous formulation comprising 1-(4-{[4-(dimethylamino)piperidin-1-yl]carbonyl}phenyl)-3-[4-(4,6-dimorpholin-4-yl-1,3,5-triazin-2-yl)phenyljurea” (PFIZER INC., priority 2017, dated 2026)

Tests used:
[1] = Visual analysis (European Pharmacopoeia Method 2.9.20) and OPM analysis for crystallites or particles (clear solution); assay type: physicochemical; conditions: for Solution concentration at which the necessary clear solutions are not obtained, or are not obtained consistently: pH required for intravenous administration
From the text: A “clear solution” is defined herein as a visually clear solution, which may bear a solution opalescence, that is essentially free from any visible particulates that can be observed on a visual inspection. Generally, if any particulate matter is observed, the formulation is not suitable for intravenous administration and should not be utilised as occlusion of blood vessels may occur. Accordingly, in view of the qualitative nature of the visual test, the term “essentially free from any visible particulates” is usually applied when no visible particulate matter is observed.
The visual inspection can be conducted in accordance with the method defined in European Pharmacopoeia Method 2.9.20 entitled “Particulate contamination: visible particles”. This method determines particulate contamination of injections and infusions by extraneous, mobile, undissolved particles, other than gas bubbles, that may be present in the solutions. […]
A sample of the formulation was analysed in accordance with the visual method defined in European Pharmacopoeia Method 2.9.20 (using a Verivide (trade mark) light cabinet and a light meter reading of 3250 lux against a matt black panel and a white panel) to determine if crystallites or particles were present. […]
A sample of the formulation was placed on a clean glass microscopy slide and covered with a glass cover slip. It was then analysed by OPM using both non-polarised and cross-polarised light under a Nikon LV 100POL (trade mark) microscope with a 10× magnification lens and a 10× magnification eyepiece to determine if crystallites or particles were present. The image was recorded using a DFK 23UP031 TIS USB 3.0 CMOS (trade mark) Colour Industrial Camera 5MP 1/2,5″ and image capture software. […]
These Examples were analysed by the visual method defined in European Pharmacopoeia Method 2.9.20 and the OPM method both as described in Example 1.
The Examples shown in the following Table were analysed by the visual method defined in European Pharmacopoeia Method 2.9.20 and the OPM method both as described in Example 1. […]

[2] = Chemical and physical storage stability of the crystalline free base; assay type: physicochemical; conditions: crystalline form, 25° C. and 60% Relative Humidity (RH)
Procedure: (§1) 1-(4-{[4-(Dimethylamino)piperidin-1-yl]carbonyl}phenyl)-3-[4-(4,6-dimorpholin-4-yl-1,3,5-triazin-2-yl)phenyl]urea may be prepared in crystalline form and is chemically and physically stable at 25° C. and 60% Relative Humidity (RH) for up to 3 years in this form.

[3] = Water solubility of the free base; assay type: physicochemical; conditions: for an aqueous solution formulation for intravenous or parenteral administration at the therapeutic dosage levels required
Procedure: as §1

[4] = only with lactic acid and orthophosphoric acid, of ten acids tested; WO2016/097949; cited from earlier work

For `CN(C)C1CCN(C(=O)c2ccc(NC(=O)Nc3ccc(-c4nc(N5CCOCC5)nc(N5CCOCC5)n4)cc3)cc2)CC1` [1-(4-{[4-(Dimethylamino)piperidin-1-yl]carbonyl}phenyl)-3-[4-(4,6-dimorpholin-4-yl-1,3,5-triazin-2-yl)phenyl]urea], the “Solution concentration at which the necessary clear solutions are not obtained, or are not obtained consistently” value ([1]; formulations comprising ethanesulphonic acid) was ≥ 35 mg/mL, the “Solution concentration at which the necessary clear solutions are not obtained, or are not obtained consistently” value ([1]; formulations comprising methanesulphonic acid) was ≥ 35 mg/mL and the “Solution concentration achieved as clear, essentially particle-free solution” value ([1]; use of methanesulphonic acid and ethanesulphonic acid, free base concentration) was “up to 30 mg/ml”. The “Time for which chemically and physically stable” value [2] was “up to 3 years”, the Water solubility [3] was “insufficiently water soluble” and the “Concentration achieved as a clear solution” value [4] was ≥ 3000 µg/mL.
